According to patent US20260000781A1, “FC CONJUGATES INCLUDING AN INHIBITOR OF CD73 AND USES THEREOF” (Cidara Therapeutics, Inc., priority 2022, published 2026):
Where two headings read alike, the source gives them in different places.

Columns and labels:
[1] = target: T1, CD73 on EMT6 mouse mammary carcinoma cells (Mus musculus, UniProt Q61503); assay: CD73 enzyme inhibition assay with mouse EMT6 cells (PiColorLock); assay type: cell-based; settings: mouse EMT6 cancer cells, AMP 100 μM
T1 construct: host or cells: EMT6
T1 sequence (Q61503 29-551): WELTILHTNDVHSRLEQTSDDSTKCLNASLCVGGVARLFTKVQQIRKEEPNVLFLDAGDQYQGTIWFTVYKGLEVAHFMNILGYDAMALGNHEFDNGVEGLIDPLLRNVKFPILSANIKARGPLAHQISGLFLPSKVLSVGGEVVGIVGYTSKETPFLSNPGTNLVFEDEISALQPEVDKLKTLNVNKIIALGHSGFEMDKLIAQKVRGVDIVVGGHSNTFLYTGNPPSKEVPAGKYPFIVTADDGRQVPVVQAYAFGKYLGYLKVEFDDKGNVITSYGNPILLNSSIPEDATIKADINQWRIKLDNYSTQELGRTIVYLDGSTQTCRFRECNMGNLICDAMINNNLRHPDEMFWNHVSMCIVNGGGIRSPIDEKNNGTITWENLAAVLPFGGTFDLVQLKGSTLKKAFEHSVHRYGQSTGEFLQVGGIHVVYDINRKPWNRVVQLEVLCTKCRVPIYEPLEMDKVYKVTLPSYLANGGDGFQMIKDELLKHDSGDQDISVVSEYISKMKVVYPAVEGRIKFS
Description: (§1) The cell-based CD73 enzyme inhibition assay was performed in a 96-well plate format using the Phosphate Assay Kit—PiColorLock™ in accordance with the manufacturer's instructions (cat no. 270004, Abcam). AMP is enzymatically converted by CD73 to adenosine and phosphate. Therefore, adenosine concentrations can be inferred from phosphate concentrations in 1:1 ratio. Both EMT6 mouse mammary carcinoma cells (ATCC CRL-2755) and human peripheral blood mononuclear cells (PBMC; Stemcell Technologies cat no. 70025, lot no. 2202401007) were assayed. The EMT6 cells were washed three times with a phosphate free CD73 buffer, detached from flasks using a cell scraper, and seeded at 3×10^3 cells/well in 100 μL into 96-well tissue culture-treated plates. Human PBMC cells were washed three times by suspending in phosphate free CD73 buffer and pelleting in a centrifuge at 125×g for 10 min at room temperature and seeded at 5×10^5 cells/well in 100 μL into 96-well tissue culture-treated plates. […] AMP was added at 100 μM and cells, test articles, and AMP were incubated together for 3 h and 24 h at 37° C., 5% CO2. The CD73 activity in the supernatant was quantified using the PiColorLock Phosphate assay kit. Colorimetric detection reagent was added and the free phosphate from the CD73 reaction was measured by reading the absorbance at 635 nm using the EnSpire multimode plate reader (PerkinElmer). Wells without test inhibitor (CD73 positive control) were included on each plate. Wells without test inhibitor and cells (background) were subtracted from all wells. The percent CD73 inhibition versus inhibitor concentration was plotted using GraphPad Prism Version 8 and IC50's calculated using nonlinear regression analysis (Sigmoidal, 4 PL).

CD73 on human PBMCs = target: T2, CD73 on human PBMCs (Homo sapiens, UniProt P21589); assay: CD73 enzyme inhibition assay with human PBMCs (PiColorLock); assay type: cell-based; settings: AMP 100 μM
T2 construct: 72400 (T cells); host or cells: human PBMCs / human T cells
T2 sequence (P21589 27-549): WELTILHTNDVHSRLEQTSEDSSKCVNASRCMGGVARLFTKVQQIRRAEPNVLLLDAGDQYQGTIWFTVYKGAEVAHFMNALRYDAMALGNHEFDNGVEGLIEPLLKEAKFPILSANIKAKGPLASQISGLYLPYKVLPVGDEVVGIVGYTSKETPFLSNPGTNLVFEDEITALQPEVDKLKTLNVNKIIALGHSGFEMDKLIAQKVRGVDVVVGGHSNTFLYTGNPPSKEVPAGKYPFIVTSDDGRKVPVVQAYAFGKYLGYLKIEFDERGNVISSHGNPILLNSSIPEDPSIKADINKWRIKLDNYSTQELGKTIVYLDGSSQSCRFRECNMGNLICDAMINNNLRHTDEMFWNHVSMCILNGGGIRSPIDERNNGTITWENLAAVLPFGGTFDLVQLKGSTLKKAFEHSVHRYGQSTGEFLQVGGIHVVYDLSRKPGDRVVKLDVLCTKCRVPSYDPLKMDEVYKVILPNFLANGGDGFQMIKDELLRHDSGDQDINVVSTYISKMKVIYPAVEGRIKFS
Description: The cell-based CD73 enzyme inhibition assay was performed in a 96-well plate format using the PiColorLock phosphate assay kit in accordance with the manufacturer's instructions (Abcam cat no. 270004). 4T1 mouse cells are a model for stage IV human breast cancer (ATCC CRL-2539) and human peripheral blood mononuclear cells (PBMCs; StemCell Technologies cat no. 70025) from three different donors were assayed. 4T1 cells were washed three times with a phosphate-free CD73 buffer (Lawson et al., 2020), detached from tissue-culture flasks using a cell scraper, and seeded at 5×10^3 cells/well into 96-well tissue culture-treated plates. Human PBMCs were washed three times with phosphate-free CD73 buffer at 125×g for 10 min at room temperature and seeded at 1×10^5 cells/well into 96-well tissue culture-treated plates. Test articles were tested from 0.001 nM to 1,000 nM (4T1 cells) or 0.0001 nM to 100 nM (PBMCs) and incubated with cells for 30 min at 37° C., 5% CO2. AMP (100 μM final concentration) was added to cells and test articles, and the reaction incubated for 3 h and 24 h at 37° C., 5% CO2. The conversion of AMP to adenosine and phosphate in cell-free supernatant was quantified using the PiColorLock kit. Colorimetric detection reagent was added and the phosphate production was measured by reading the absorbance at 635 nm with the EnSpire multimode plate reader (PerkinElmer). Cells without test article (positive control) were included on each plate. Control wells without test article and cells (background) were subtracted from all wells. Percent CD73 inhibition versus inhibitor concentration was plotted using GraphPad Prism Version 8 and IC50's calculated using nonlinear regression analysis (Sigmoidal, 4 PL).
as §1

[2] = read-out: 3 h median IC50 [nM] (range), three unique PBMC donors, 3 h
[3] = three unique PBMC donors, 24 h, read-out: 24 h median IC50 [nM] (range)

Row | SMILES | IC50 ([1]; 3 h IC50 [nM], 3 h) | IC50 ([1]; 24 h, read-out: 24 h IC50) | IC50 (CD73 on human PBMCs; human PBMCs, 24 h (Table 18), read-out: 24 h IC50) | IC50 (CD73 on human PBMCs; read-out: 3 h IC50, human PBMCs, 3 h (Table 18)) | IC50 (CD73 on human PBMCs; [2]) | IC50 (CD73 on human PBMCs; [3]) | IC50 ([1]; read-out: 3 h IC50, 3 h)
1 | C[C@H](Nc1cc(Cl)nc2c1cnn2[C@@H]1O[C@H](COP(=O)(O)CP(=O)(O)O)[C@@H](O)[C@H]1O)c1ccccc1F [AB680] | 1.06 nM | 2.29 nM | – | – | – | – | –
2 | COC[C@](CO)(OC[C@H]1O[C@@H](n2ncc3c(NC4CCCC4)nc(Cl)nc32)[C@H](O)[C@@H]1O)P(=O)(O)O [OP-5244] | – | 0.51 nM | 0.28 nM | 0.011 nM | 0.07 nM | 0.15 nM | 0.28 nM
3 | O=P(O)(O)COC[C@H]1O[C@@H](n2ncc3c(N4CC5(CCc6ccccc65)C4)nc(Cl)nc32)[C@H](O)[C@@H]1O [SHR170008] | – | – | – | – | 1.45 nM | 2.36 nM | –
